Experimental data: patent US6608082B1, “Treatment of erectile dysfunction using isoquinoline compound melanocortin receptor ligands” (Lion Bioscience AG, priority 1998, dated 2003)
Like-named read-outs stand apart in the source and are kept apart here. Each block holds one molecule with its values, some of them ahead of it.

Columns and labels:
[1] = target: T1, MCR-1 (Homo sapiens, UniProt Q01726); experiment: Melanocortin receptor binding assay, competition with 125I-HP 467, HEK 293 cells expressing hMCR-1; conditions: for IC50: read-out: MC-1 IC50
T1 construct: expressed in transfected cells; host or cells: HEK 293
T1 sequence (Q01726 whole entry): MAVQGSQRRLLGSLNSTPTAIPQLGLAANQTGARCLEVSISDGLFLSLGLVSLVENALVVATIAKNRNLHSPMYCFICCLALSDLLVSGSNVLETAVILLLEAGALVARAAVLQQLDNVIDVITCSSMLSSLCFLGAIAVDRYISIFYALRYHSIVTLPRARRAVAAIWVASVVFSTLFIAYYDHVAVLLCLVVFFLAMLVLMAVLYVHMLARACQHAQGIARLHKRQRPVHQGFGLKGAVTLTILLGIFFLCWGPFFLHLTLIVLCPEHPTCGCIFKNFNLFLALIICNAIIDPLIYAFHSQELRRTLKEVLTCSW
Method in brief: (§1)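 Test compounds compete on intact HEK 293 cells carrying hMCR-1 (2×10^4 per tube) or hMCR-4 (4×10^3 per tube), suspended in PBS, 10% calf serum, 1 mM CaCl2.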

[2] = target: T2, MCR-4 (Homo sapiens, UniProt P32245); experiment: Melanocortin receptor binding assay, competition with 125I-HP 467, HEK 293 cells expressing hMCR-4; conditions: for IC50: read-out: MC-4 IC50
T2 construct: expressed in transfected cells; host or cells: HEK 293
T2 sequence (P32245 whole entry): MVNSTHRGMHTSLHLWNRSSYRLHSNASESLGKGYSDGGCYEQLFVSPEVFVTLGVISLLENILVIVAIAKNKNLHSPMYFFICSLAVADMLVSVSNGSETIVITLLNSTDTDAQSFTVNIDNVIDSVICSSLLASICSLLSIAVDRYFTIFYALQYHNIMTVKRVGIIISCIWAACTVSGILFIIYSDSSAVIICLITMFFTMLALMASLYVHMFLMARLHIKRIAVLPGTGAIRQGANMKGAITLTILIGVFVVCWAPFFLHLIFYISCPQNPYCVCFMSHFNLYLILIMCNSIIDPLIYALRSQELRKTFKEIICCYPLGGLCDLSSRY
Method in brief: as §1

[3] = TRG 2414 library, inhibition of binding of 125I-HP 467, HEK 293 cells expressing MCR-1
[4] = TRG 2414 library, inhibition of binding of 125I-HP 467, HEK 293 cells expressing MCR-4
[5] = inhibition of binding of 125I-HP 467, HEK 293 cells expressing MCR-1
[6] = inhibition of binding of 125I-HP 467, HEK 293 cells expressing MCR-4
[7] = inhibition of binding of 125I-HP 467, HEK 293 cells expressing MCR-1, TRG 2414 library
[8] = inhibition of binding of 125I-HP 467, HEK 293 cells expressing MCR-4, TRG 2414 library
[9] = TRG 2406 and TRG 2407 libraries, inhibition of binding of 125I-HP 467
[10] = TRG 2408 and TRG 2409 libraries, inhibition of 125I-HP 467 binding
[11] = competition with 125I-HP 467, HEK 293 cells expressing MCR-1
[12] = competition with 125I-HP 467, HEK 293 cells expressing MCR-4

SMILES: NCC(CCCCN1Cc2ccccc2C(CNC2CCCCC2)C1c1ccccc1Br)NCc1ccccc1 (centres unmarked) [Cmpd 239]
IC50 [1, 3]: 3300 nM
IC50 [2, 4]: 6.27 µM

SMILES: CC(C)Cc1ccc(C(C)CNC(CN)CCCCN2Cc3ccccc3C(CNCCc3cccc(Cl)c3)C2c2ccc(Cl)cc2Cl)cc1 (centres unmarked) [TRG 2414-16]
MC-1 IC50 [1, 7]: no fit
IC50 [2, 8]: 33.4 µM

SMILES: CNC(CN)CCCCN1Cc2ccccc2C(CNCc2ccc(OC)cc2)C1c1ccc(Cl)cc1Cl (centres unmarked) [TRG 2407-19]
IC50 [1, 9]: 2290 nM
IC50 [2, 9]: 2.04 µM

SMILES: COc1cccc(CNCC2c3ccccc3CN(CCCCC(CN)NCC(C)c3ccc(CC(C)C)cc3)C2c2ccc(Cl)cc2Cl)c1 (centres unmarked) [TRG 2414-20]
IC50 [1, 7]: 27400 nM
IC50 [2, 8]: 38.1 µM

SMILES: CC(C)Cc1ccc(C(C)CNC(CN)CCCCN2Cc3ccccc3C(CNCc3ccccc3C(F)(F)F)C2c2ccccc2Br)cc1 (centres unmarked) [Cmpd 204]
MC-1 IC50 [1, 3]: no fit
MC-4 IC50 [2, 4]: no fit

SMILES: COc1ccc(CNCC2c3ccccc3CN(CCCCC(N)CN)C2c2ccc(Cl)cc2Cl)cc1 (centres unmarked) [TRG 2414-21]
IC50 [1, 7]: 1120 nM
IC50 [2, 8]: 1.57 µM

SMILES: NCC(CCCCN1Cc2ccccc2C(CNCc2ccccc2C(F)(F)F)C1c1ccc(Oc2ccccc2)cc1)NCCc1ccccc1 (centres unmarked) [TRG 2414-122]
MC-1 IC50 [1, 7]: no fit
IC50 [2, 8]: 55.5 µM

SMILES: NCC(CCCCN1Cc2ccccc2C(CNCCc2ccc(O)cc2)C1c1cc(C(F)(F)F)cc(C(F)(F)F)c1)NCc1ccc(-c2ccccc2)cc1 (centres unmarked) [TRG 2421-10]
IC50 [1, 5]: 4770 nM
IC50 [2, 6]: 9.11 µM

SMILES: CNC(CN)CCCCN1Cc2ccccc2C(CN2CCCCC2)C1c1ccc(Cl)cc1Cl (centres unmarked) [TRG 2407-32]
IC50 [1, 9]: 3290 nM
IC50 [2, 9]: 2.14 µM

SMILES: CNCCNC(CN)CCCCN1Cc2ccccc2C(CNC2CCCCC2)C1c1ccc(Cl)cc1Cl (centres unmarked) [TRG 2408-16]
IC50 [1, 10]: 1790 nM
IC50 [2, 10]: 6.11 µM

SMILES: CCOc1ccccc1CNCC1c2ccccc2CN(CCCCC(CN)NCC(C)c2ccc(CC(C)C)cc2)C1c1ccccc1Br (centres unmarked) [Cmpd 208]
IC50 [1, 3]: 34400 nM
IC50 [2, 4]: 21.1 µM

Further lines, results first:

IC50 [1, 5]: 1690 nM
IC50 [2, 6]: 9.39 µM
SMILES: CCCCCc1ccc(C2C(CN)c3ccccc3CN2CCCC(CN)NCCC2CCCCC2)cc1 (centres unmarked) [TRG 2415-14]

IC50 [1, 3]: 4410 nM
IC50 [2, 4]: 5.28 µM
SMILES: NCC(CCCCN1Cc2ccccc2C(CNC2CCCCCC2)C1c1ccccc1Br)NCCc1ccccc1 (centres unmarked) [Cmpd 234]

IC50 [1, 5]: 70 nM
IC50 [2, 6]: 0.88 µM
SMILES: CCCCNc1ccc(C2C(CNCCc3ccccc3)c3ccccc3CN2CCCC(CN)N2CCCC2)cc1 (centres unmarked) [TRG 2411-192]

IC50 [1, 10]: 3240 nM
IC50 [2, 10]: 10.5 µM
SMILES: CNCCNC(CN)CCN1Cc2ccccc2C(CNC2CCCCC2)C1c1ccc(-c2ccccc2)cc1 (mixture of isomers) [TRG 2408-114]

IC50 [1, 11]: 220 nM
IC50 [2, 12]: 0.76 µM
SMILES: CCCCNc1ccc(C2C(CNCCc3ccccc3)c3ccccc3CN2CCCCC(CN)NCCC2CCCCC2)cc1 (centres unmarked) [TRG 2411-84]

IC50 [1, 9]: 4230 nM
IC50 [2, 9]: 7.9 µM
SMILES: CCNc1ccc(C2C(CN(C)c3ccccc3)c3ccccc3CN2CCCCC(CN)NC)cc1 (centres unmarked) [TRG 2407-42]

IC50 [1, 7]: 8200 nM
IC50 [2, 8]: 16.8 µM
SMILES: COc1ccc(CCNCC2c3ccccc3CN(CCCCC(CN)NCCc3ccccc3)C2c2ccc(Oc3ccccc3)cc2)cc1 (mixture of isomers) [TRG 2414-146]

IC50 [1, 5]: 100 nM
IC50 [2, 6]: 0.41 µM
SMILES: CCNc1ccc(C2C(CNCCc3ccccc3)c3ccccc3CN2CCCC(CN)NCc2ccccc2)cc1 (centres unmarked) [TRG 2411-158]

IC50 [1, 7]: 6410 nM
IC50 [2, 8]: 6.93 µM
SMILES: NC[C@H](CCCCN1Cc2ccccc2C(CNCCc2cccc(Cl)c2)C1c1ccc(Cl)cc1Cl)NCc1ccccc1 (some centres unmarked) [TRG 2414-15]

IC50 [1, 3]: 3560 nM
IC50 [2, 4]: 4.21 µM
SMILES: COc1ccccc1CCNCC1c2ccccc2CN(CCCCC(CN)NCc2ccccc2)C1c1ccccc1Br (centres unmarked) [Cmpd 211]

IC50 [1, 11]: 890 nM
IC50 [2, 12]: 1.33 µM
SMILES: CCNc1ccc(C2C(CNCCc3ccccc3)c3ccccc3CN2CCCCC(CN)NCCc2ccc3ccccc3c2)cc1 (centres unmarked) [TRG 2411-46]

IC50 [1, 5]: 160 nM
IC50 [2, 6]: 0.64 µM
SMILES: CCNc1ccc(C2C(CNCCc3ccccc3)c3ccccc3CN2CCCC(CN)NCCc2ccc3ccccc3c2)cc1 (centres unmarked) [TRG 2411-161]

IC50 [1, 10]: 1000 nM
IC50 [2, 10]: 14.8 µM
SMILES: NCCNC(CN)CCCCN1Cc2ccccc2C(CNC2CCCCC2)C1c1ccc(-c2ccccc2)cc1 (centres unmarked) [TRG 2408-53]

IC50 [1, 9]: 350 nM
IC50 [2, 9]: 9.1 µM
SMILES: CCNc1ccc(C2C(CNCc3ccccc3)c3ccccc3CN2CCCCC(CN)NC)cc1 (centres unmarked) [TRG 2407-50]
